Measurements from US20190002825A1, “Method for Inducing Targeted Differentiation of Human Stem Cells Toward Hepatic Cells” (TRANSCEND CYTOTHERAPY CO., LTD, priority 2015, published 2019).
Each block holds one compound with its values, some of them ahead of it.

Assays:
[1] = in vivo; cited from earlier work
[2] = in vivo; cited from earlier work; remark: listed apart in the source
[3] = tested on: Wnt signaling pathway; conditions: cited from earlier work
[4] = tested on: CDC2, ERK2 and other kinases; conditions: cited from earlier work
[5] = tested on: activin type II receptors; conditions: cited from earlier work
[6] = target: TGF-β type II receptors (Homo sapiens, UniProt P37173); conditions: cited from earlier work
Chain of TGF-β type II receptors (P37173 23-567): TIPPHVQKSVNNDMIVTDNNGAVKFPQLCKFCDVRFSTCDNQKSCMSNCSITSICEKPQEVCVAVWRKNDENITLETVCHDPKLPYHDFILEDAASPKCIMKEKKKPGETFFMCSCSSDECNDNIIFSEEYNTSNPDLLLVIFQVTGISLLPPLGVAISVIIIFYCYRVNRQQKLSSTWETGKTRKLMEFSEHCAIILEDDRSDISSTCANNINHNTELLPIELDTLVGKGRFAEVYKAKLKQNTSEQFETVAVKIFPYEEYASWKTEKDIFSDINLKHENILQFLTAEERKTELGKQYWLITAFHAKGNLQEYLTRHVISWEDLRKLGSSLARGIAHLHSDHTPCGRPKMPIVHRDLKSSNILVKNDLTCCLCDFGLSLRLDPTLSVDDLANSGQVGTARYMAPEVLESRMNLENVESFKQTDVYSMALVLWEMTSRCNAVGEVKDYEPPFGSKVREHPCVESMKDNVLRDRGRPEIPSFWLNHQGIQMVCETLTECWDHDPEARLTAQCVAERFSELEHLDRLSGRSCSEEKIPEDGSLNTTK

[7] = tested on: BMP type II receptors; conditions: cited from earlier work
[8] = target: TGF-β receptor type II (TβRII) (Homo sapiens, UniProt P37173); conditions: cell-free assays; cited from earlier work
Chain of TGF-β receptor type II (TβRII) (P37173 23-567): as above

[9] = target: ROCK1 (Homo sapiens, UniProt Q13464); conditions: cited from earlier work
Chain of ROCK1 (Q13464 whole entry): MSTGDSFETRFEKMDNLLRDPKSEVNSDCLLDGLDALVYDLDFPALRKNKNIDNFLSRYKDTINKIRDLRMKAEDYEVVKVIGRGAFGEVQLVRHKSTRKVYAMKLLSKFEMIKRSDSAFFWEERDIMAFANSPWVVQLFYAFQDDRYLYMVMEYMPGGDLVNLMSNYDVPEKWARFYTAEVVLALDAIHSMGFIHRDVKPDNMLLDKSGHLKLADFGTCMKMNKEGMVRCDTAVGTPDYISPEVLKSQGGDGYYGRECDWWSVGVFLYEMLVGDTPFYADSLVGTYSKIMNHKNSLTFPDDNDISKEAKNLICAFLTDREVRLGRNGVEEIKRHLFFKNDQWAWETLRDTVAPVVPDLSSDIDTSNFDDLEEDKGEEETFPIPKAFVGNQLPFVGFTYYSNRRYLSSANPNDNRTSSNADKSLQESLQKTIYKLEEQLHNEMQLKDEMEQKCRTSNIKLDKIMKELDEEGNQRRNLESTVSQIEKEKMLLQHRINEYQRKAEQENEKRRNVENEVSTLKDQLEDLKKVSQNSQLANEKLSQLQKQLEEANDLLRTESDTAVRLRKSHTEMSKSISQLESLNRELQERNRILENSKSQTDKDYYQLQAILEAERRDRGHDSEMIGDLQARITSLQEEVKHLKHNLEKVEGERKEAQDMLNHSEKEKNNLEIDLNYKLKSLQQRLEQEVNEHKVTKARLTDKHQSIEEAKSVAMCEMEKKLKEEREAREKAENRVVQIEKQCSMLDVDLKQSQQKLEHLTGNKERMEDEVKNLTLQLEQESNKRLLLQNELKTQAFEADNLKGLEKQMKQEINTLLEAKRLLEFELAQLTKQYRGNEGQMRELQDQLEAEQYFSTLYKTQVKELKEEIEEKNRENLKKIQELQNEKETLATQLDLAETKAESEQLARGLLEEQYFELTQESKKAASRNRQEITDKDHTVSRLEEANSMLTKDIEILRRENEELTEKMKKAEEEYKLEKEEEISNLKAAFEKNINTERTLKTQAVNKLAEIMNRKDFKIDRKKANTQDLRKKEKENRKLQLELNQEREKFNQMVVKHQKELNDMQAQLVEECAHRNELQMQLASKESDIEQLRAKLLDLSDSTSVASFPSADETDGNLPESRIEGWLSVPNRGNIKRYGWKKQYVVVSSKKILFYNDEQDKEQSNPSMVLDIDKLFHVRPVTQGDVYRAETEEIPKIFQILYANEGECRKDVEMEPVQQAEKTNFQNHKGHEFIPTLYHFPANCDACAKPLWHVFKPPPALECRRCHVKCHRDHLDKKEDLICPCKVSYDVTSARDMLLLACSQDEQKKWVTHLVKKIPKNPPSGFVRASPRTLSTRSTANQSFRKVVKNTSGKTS

[10] = target: T1, ALK4 (Homo sapiens, UniProt P36896); conditions: cited from earlier work
T1 sequence (P36896 24-505): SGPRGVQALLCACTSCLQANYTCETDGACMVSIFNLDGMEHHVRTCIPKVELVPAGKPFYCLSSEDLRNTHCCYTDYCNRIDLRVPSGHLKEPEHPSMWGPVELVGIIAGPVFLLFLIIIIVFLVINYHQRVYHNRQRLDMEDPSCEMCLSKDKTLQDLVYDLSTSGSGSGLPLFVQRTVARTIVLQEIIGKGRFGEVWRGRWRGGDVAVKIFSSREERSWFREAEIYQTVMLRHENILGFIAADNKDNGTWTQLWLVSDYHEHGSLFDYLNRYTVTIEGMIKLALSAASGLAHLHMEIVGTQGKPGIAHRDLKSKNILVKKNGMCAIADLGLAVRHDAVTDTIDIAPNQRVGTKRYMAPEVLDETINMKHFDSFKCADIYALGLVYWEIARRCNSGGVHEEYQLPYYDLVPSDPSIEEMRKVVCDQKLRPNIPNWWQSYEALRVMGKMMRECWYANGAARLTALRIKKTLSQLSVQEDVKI

[11] = tested on: ALK1, ALK2, ALK3 or ALK6; conditions: cited from earlier work
[12] = target: T2, ALK7 (Homo sapiens, UniProt Q8NER5); conditions: in words; cited from earlier work
T2 sequence (Q8NER5 21-493): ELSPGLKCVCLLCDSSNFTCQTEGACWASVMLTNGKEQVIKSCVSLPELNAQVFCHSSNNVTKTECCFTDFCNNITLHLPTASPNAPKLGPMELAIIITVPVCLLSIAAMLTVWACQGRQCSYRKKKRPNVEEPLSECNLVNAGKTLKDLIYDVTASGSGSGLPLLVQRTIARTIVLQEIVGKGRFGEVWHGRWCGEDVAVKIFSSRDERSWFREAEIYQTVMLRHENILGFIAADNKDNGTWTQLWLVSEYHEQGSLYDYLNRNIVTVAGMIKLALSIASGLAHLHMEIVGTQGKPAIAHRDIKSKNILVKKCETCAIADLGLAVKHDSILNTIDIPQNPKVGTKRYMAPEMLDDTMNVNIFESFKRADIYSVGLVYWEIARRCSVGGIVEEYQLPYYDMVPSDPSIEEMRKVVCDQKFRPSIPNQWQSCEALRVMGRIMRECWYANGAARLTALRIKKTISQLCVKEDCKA

[13] = tested on: ALK2, ALK3 and ALK6; conditions: cited from earlier work
[14] = tested on: p38, MAPK and other kinases; conditions: cited from earlier work
[15] = target: GSK-3β (Homo sapiens, UniProt P49841); conditions: cited from earlier work
Chain of GSK-3β (P49841 whole entry): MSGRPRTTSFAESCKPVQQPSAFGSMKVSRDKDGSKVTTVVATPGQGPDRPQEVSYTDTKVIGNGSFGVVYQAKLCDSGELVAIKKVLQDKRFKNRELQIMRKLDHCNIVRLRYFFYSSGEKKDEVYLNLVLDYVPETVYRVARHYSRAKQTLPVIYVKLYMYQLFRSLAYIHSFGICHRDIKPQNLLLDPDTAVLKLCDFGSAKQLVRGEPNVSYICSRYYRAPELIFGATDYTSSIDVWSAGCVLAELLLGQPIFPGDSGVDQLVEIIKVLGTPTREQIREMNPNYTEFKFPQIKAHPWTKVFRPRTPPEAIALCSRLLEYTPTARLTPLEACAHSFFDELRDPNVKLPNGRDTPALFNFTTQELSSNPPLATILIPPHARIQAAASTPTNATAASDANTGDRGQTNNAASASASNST

[16] = tested on: human embryonic stem cells (hESCs); conditions: cited from earlier work
[17] = tested on: ROCK; conditions: cell-free assays; cited from earlier work
[18] = tested on: PKC, cAMP-dependent protein kinases, MLCK and PAK; conditions: cited from earlier work
[19] = tested on: CYP1A2; format: cell-based, human
[20] = target: GSK-3α (Homo sapiens, UniProt P49840); conditions: cited from earlier work
Chain of GSK-3α (P49840 whole entry, species assumed): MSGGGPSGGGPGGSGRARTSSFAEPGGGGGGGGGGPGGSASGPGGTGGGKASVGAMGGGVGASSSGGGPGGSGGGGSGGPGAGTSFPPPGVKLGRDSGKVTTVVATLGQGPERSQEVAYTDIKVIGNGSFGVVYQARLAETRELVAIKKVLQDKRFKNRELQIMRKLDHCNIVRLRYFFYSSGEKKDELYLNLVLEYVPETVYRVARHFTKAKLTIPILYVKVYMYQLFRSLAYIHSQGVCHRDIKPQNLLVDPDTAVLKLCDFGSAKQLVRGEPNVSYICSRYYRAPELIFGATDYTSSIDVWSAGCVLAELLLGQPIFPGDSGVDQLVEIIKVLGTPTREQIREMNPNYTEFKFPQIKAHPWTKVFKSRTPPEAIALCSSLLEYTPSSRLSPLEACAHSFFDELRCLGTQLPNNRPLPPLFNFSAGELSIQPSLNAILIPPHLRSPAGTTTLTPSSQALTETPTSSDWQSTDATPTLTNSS

[21] = target: TGF-βRII (Homo sapiens, UniProt P37173); conditions: cited from earlier work
Chain of TGF-βRII (P37173 23-567): as the sequence (P37173 23-567) above

Compound: N#Cc1ccc2[nH]c(O)c(-c3ccc(CN4CCOCC4)cn3)c2c1 [AZD1080]
oral bioavailability [1]: orally bioavailable
permeability to the brain [2]: permeable to the brain

Compound: CN1CCN(S(=O)(=O)c2ccc(-c3cnc(N)c(C(=O)Nc4cccnc4)n3)cc2)CC1 [AZD2858]
effect on the Wnt signaling pathway [3]: enhances

Compound: Cc1cnc(-c2cnc(NCCNc3ccc(C#N)cn3)nc2-c2ccc(Cl)cc2Cl)[nH]1 [CHIR-99021]
times more inhibitory on GSK-3α and GSK-3β than on CDC2, ERK2 and other kinases [4]: 500 times

Compound: Cc1cccc(-c2[nH]c(CNc3ccccc3F)nc2-c2ccc3ncnn3c2)n1 [EW-7197]
oral bioavailability [1]: orally bioavailable

Compound: O=C(NC1CCOCC1)c1ccc(-c2cc(-c3c[nH]nc3-c3ccccn3)ccn2)cc1 [GW788388]
inhibition of the activity of activin type II receptors [5]: inhibits
inhibition of the activity of TGF-β type II receptors [6]: inhibits
inhibition of the activity of BMP type II receptors [7]: does not inhibit

Compound: c1ccc(-c2nn3c(c2-c2ccnc4cc(OCCN5CCOCC5)ccc24)CCC3)nc1 [LY2109761]
Ki [8]: 0.3 µM

Compound: O=C(NCc1cccc(O)c1)Nc1nc(-c2ccncc2)cs1 [RKI-1447]
IC50 [9]: 0.0145 µM

Compound: Cc1cccc(-c2[nH]c(C(C)(C)C)nc2-c2ccc3c(c2)OCO3)n1 [SB505124]
IC50 ([10]; cell-free assays where stated): 0.129 µM
inhibition of ALK1, ALK2, ALK3 or ALK6 [11]: does not inhibit
inhibition of ALK7 [12]: inhibits

Compound: Cc1cccc(-c2[nH]c(C(C)(C)C)nc2-c2ccc3nccnc3c2)n1 [SB525334]
effect on ALK4, times lower than on ALK5 [10]: 4 times
activity on ALK2, ALK3 and ALK6 [13]: no activity

Compound: NC(=O)c1ccc(-c2nc(-c3ccc4c(c3)OCO4)c(-c3ccccn3)[nH]2)cc1 [SB-431542]
times more inhibitory on ALK5 than on p38, MAPK and other kinases [14]: 100 times

Compound: Nc1cccc(-c2cc3c(Oc4cccc(O)c4)ncnc3[nH]2)c1 [TWS119]
IC50 [15]: 0.03 µM

Compound: O=C(NCc1ccccc1)c1csc(Nc2ccncn2)n1 [Thiazovivin]
survival of human embryonic stem cells (hESCs) after single cell isolation [16]: promotes the survival
IC50 [17]: 0.5 µM

Compound: C[C@@H](N)[C@H]1CC[C@H](C(=O)Nc2ccncc2)CC1 [Y-27632]
times more inhibitory on ROCK1 than on other kinases including PKC, cAMP-dependent protein kinases, MLCK and PAK [18]: ≥ 200 times

activity of P450 enzyme (CYP1A2) when induced [19]: enhanced
Compound: COc1ccc2[nH]c([S+]([O-])Cc3ncc(C)c(OC)c3C)nc2c1 (centres unmarked) [omeprazole]

Compound: CHIR-98014
IC50 [20]: 0.00065 µM

Compound: SD-208
times more selective on TGF-βRI than on TGF-βRII [21]: ≥ 100 times
